Results from US8048879B2, “Substituted 4,5,6,7-tetrahydro-isoxazolo[4,5-c]pyridine compounds and use thereof for producing medicaments” (Gruenenthal GmbH, priority 2005, dated 2011).
Where a name gives a salt, the structure may show the parent alone.

Columns and labels:
[1] = target: T1, 5-HT transporter (Rattus norvegicus, UniProt P31652); assay: 5-HT uptake inhibition, synaptosomes from rat brain (medulla and pons); type: biochemical
T1 construct: from tissue; host or cells: rat brain (medulla and pons), synaptosomes, P2 fraction
T1 sequence (P31652 whole entry): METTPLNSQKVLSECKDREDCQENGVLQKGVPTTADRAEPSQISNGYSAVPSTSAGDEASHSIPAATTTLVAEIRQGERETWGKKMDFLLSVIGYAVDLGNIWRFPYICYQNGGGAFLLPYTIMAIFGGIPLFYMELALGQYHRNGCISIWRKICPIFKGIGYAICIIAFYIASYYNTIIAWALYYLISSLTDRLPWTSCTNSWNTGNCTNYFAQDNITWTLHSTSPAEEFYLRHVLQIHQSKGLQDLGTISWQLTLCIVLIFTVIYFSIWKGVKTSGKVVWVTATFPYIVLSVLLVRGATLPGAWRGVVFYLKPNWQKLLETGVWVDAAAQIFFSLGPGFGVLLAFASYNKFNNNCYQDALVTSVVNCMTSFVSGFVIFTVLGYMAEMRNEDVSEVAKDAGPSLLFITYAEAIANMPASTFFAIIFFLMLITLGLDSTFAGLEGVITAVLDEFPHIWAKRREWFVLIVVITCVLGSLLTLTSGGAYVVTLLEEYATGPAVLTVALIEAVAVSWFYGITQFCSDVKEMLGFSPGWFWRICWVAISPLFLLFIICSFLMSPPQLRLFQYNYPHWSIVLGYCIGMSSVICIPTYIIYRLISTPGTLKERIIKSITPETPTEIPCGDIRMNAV
Method in brief: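 Freshly isolated rat brain synaptosomes (P2 fraction): hypothalamus for NA uptake, medulla/pons for 5-HT uptake. Uptake of [3H]-NA (7.5 min) or [3H]-5-HT (5 min) at room temperature under O2, stopped by filtration over GF/B. Retained radioactivity counted by scintillation.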

[2] = target: T2, NA transporter (Rattus norvegicus, UniProt Q9WTR4); assay: Noradrenalin (NA) uptake inhibition, synaptosomes from rat brain (hypothalamus); type: biochemical
T2 construct: from tissue; host or cells: rat brain (hypothalamus), synaptosomes, P2 fraction
T2 sequence (Q9WTR4 1-597): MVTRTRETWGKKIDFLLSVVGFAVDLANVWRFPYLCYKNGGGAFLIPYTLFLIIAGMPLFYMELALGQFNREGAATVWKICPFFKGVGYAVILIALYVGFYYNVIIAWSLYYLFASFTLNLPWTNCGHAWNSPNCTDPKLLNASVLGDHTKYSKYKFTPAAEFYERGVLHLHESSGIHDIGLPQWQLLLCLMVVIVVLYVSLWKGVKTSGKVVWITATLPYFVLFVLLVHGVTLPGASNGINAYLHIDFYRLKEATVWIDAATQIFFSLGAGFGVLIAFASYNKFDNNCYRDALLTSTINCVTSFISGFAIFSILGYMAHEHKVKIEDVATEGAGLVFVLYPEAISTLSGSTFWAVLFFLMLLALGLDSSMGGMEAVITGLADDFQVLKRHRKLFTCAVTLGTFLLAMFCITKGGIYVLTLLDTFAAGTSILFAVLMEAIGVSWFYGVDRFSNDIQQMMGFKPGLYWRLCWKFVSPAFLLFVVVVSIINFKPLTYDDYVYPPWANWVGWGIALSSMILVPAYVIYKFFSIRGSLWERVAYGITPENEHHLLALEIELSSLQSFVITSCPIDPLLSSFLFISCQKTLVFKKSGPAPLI
Source text: b) Method for Determining Noradrenalin and 5-HT Uptake Inhibition:
Synaptosomes from rat brain regions are freshly isolated for in vitro studies, as described in the publication “The isolation of nerve endings from brain” by E. G. Gray and V. P. Whittaker, J. Anatomy 96, pages 79-88, 1962. The corresponding literature description is hereby introduced as a reference and is deemed to be part of the disclosure.
The tissue (hypothalamus for the determination of noradrenalin uptake inhibition and medulla and pons for the determination of 5-HT uptake inhibition) is homogenised in ice-cooled 0.32 M sucrose (100 mg of tissue/1 mL) in a glass homogeniser with Teflon pestle using five complete up and down strokes at 840 revolutions/minute.
The homogenate is centrifuged at 4° C. for 10 minutes at 1000 g. After subsequent centrifugation at 17000 g for 55 minutes, the synaptosomes (P2 fraction) are obtained, which are resuspended in 0.32 M […] (0.5 mL/100 mg of original weight).
The particular uptake is measured in a 96-well microtitre plate. The volume is 250 μL and the incubation proceeds at room temperature (approx. 20-25° C.) under an O2 atmosphere.
The incubation time is 7.5 minutes for [^3H]-NA and 5 minutes for [^3H]-5-HT. The 96 samples are then filtered through a Unifilter GF/B® microtitre plate (Packard) and washed with 200 mL of incubated buffer using a “Brabdel MPXRI-96T Cell-Harvester”. The Unifilter GF/B plate is dried for 1 hour at 55° C. The plate is then sealed with a Back Seal® (Packard) and 35 μL of scintillation fluid are added per well (Ultima Gold®, Packard). After sealing with a top Seal® (Packard) and establishing an equilibrium (around 5 hours), radioactivity is determined in a “Trilux 1450 Microbeta” (Wallac).
The quantity of protein used in the above determination corresponds to the values known from the literature, as for example described in “Protein measurement with the folin phenol reagent”, Lowry et al., J. Biol. Chem., 193, 265-275, 1951.
A detailed description of the method may additionally be found in the literature, for example in M. Ch. Frink, H.-H. Hennies, W. Engelberger, M. Haurand and B. Wilffert (1996) Arzneim.-Forsch./Drug Res. 46 (III), 11, 1029-1036.
The following characteristics were determined for the NA or 5-HT transporter: […]

Row | melting point [°C] | Compound | inhibition at 10 µM [1] [%] | inhibition at 10 µM [2] [%] | 5-HT uptake (rat), 10 μM, % inhibition ([1]; 10 µM) [%]
1 | 187.8 | CC(=O)c1ccc(N2CCN(C(=O)c3noc4c3CN(S(=O)(=O)c3ccc(C)cc3)CC4)CC2)cc1 [Example 86, 1-(4-{4-[5-(Toluene-4-sulfonyl)-4,5,6,7-tetrahydro-isoxazolo[4,5-c]pyridine-3-carbonyl]-piperazin-1-yl}-phenyl)-ethanone] | 86 |  | 
2 |  | O=C(c1noc2c1CN(S(=O)(=O)c1ccc3ccccc3c1)CC2)N1CCN(c2nccs2)CC1 [Example 143, (5-(naphthalen-2-ylsulfonyl)-4,5,6,7-tetrahydroisoxazolo[4,5-c]pyridin-3-yl)(4-(thiazol-2-yl)piperazin-1-yl)methanone] | 29 | 44 | 
3 |  | Cc1cc(C)c(S(=O)(=O)N2CCc3onc(C(=O)N4CCN(CCCN(C)C)CC4)c3C2)c(C)c1 [Example 144, (4-(3-(dimethylamino)propyl)piperazin-1-yl)(5-(mesitylsulfonyl)-4,5,6,7-tetrahydroisoxazolo[4,5-c]pyridin-3-yl)methanone dihydrochloride] | 21 | 24 | 
4 |  | Cc1cc(C)c(S(=O)(=O)N2CCc3onc(C(=O)N4CCC(CCN5CCCC5)CC4)c3C2)c(C)c1 [Example 146, (5-(mesitylsulfonyl)-4,5,6,7-tetrahydroisoxazolo[4,5-c]pyridin-3-yl)(4-(2-(pyrrolidin-1-yl)ethyl)piperidin-1-yl)methanone] | 53 | 42 | 
5 |  | O=C(c1noc2c1CN(S(=O)(=O)c1ccc(Cl)c(Cl)c1)CC2)N1CCC(CCN2CCCC2)CC1 [Example 147, (5-(3,4-dichlorophenylsulfonyl)-4,5,6,7-tetrahydroisoxazolo[4,5-c]pyridin-3-yl)(4-(2-(pyrrolidin-1-yl)ethyl)piperidin-1-yl)methanone] | 35 | 34 | 
6 |  | O=C(c1noc2c1CN(S(=O)(=O)c1ccc3ccccc3c1)CC2)N1CCC(CCN2CCCC2)CC1 [Example 148, (5-(naphthalen-2-ylsulfonyl)-4,5,6,7-tetrahydroisoxazolo[4,5-c]pyridin-3-yl)(4-(2-(pyrrolidin-1-yl)ethyl)piperidin-1-yl)methanone] | 67 | 49 | 
7 |  | Cl.O=C(c1noc2c1CN(S(=O)(=O)c1cccc3ccccc13)CC2)N1CCC(CCN2CCCC2)CC1 [Example 149, (5-(Naphthalene-1-ylsulfonyl)-4,5,6,7-tetrahydroisoxazolo[4,5-c]pyridin-3-yl)(4-(2-(pyrrolidin-1-yl)ethyl)piperidin-1-yl)methanone hydrochloride] | 68 | 54 | 
8 |  | CC(NC(=O)N1CCc2onc(C(=O)NCc3ccccc3)c2C1)c1ccccc1 (stereo not drawn) [Example 150, N^3-benzyl-N^5-(1-phenylethyl)-6,7-dihydroisoxazolo[4,5-c]pyridine-3,5(4H)-dicarboxamide] | 58 | 27 | 
9 |  | COc1ccc(NC(=O)N2CCc3onc(C(=O)NCc4ccccc4)c3C2)cc1 [Example 151, N^3-benzyl-N^5-(4-methoxyphenyl)-6,7-dihydroisoxazolo[4,5-c]pyridine-3,5(4H)-dicarboxamide] | 36 | 34 | 
10 |  | Cc1ccc(NC(=O)c2noc3c2CN(S(=O)(=O)c2ccc(C)cc2)CC3)cc1 [Example 152, N-p-tolyl-5-tosyl-4,5,6,7-tetrahydroisoxazolo[4,5-c]pyridine-3-carboxamide] | 29 | 24 | 
11 |  | COCCNC(=O)c1noc2c1CN(C(=O)c1ccc(C(F)(F)F)c(F)c1)CC2 [Example 153, 5-(3-fluoro-4-(trifluoromethyl)benzoyl)-N-(2-methoxyethyl)-4,5,6,7-tetrahydroisoxazolo[4,5-c]pyridine-3-carboxamide] | 37 | -12 | 
12 |  | COc1ccc(NC(=O)N2CCc3onc(C(=O)NCc4ccc(S(N)(=O)=O)cc4)c3C2)cc1 [Example 154, N^5-(4-methoxyphenyl)-N^3-(4-sulfamoylbenzyl)-6,7-dihydroisoxazolo[4,5-c]pyridine-3,5(4H)-dicarboxamide] | -8 | -4 | 
13 |  | O=C(NCCN1CCCC1)c1noc2c1CN(C(=O)COc1cccc(Cl)c1)CC2 [Example 155, 5-(2-(3-chlorophenoxy)acetyl)-N-(2-(pyrrolidin-1-yl)ethyl)-4,5,6,7-tetrahydroisoxazolo[4,5-c]pyridine-3-carboxamide] | 92 | 70 | 
14 |  | O=C(Nc1ccccc1)c1noc2c1CN(C(=O)c1ccccc1F)CC2 [Example 156, 5-(2-fluorobenzoyl)-N-phenyl-4,5,6,7-tetrahydroisoxazolo[4,5-c]pyridine-3-carboxamide] | 10 | 23 | 
15 |  | Cc1ccc(S(=O)(=O)N2CCc3onc(C(=O)NCc4ccc(S(N)(=O)=O)cc4)c3C2)cc1 [Example 157, N-(4-sulfamoylbenzyl)-5-tosyl-4,5,6,7-tetrahydroisoxazolo[4,5-c]pyridine-3-carboxamide] |  | 45 | 15
